{"source": "patent US20260138970A1", "about": "“MODULATORS OF THE CALCIUM SIGNALING CASCADE” (FONDAZIONE TELETHON ETS, priority 2022, published 2026)", "key": {"TMEM16A": {"tested_on": "TMEM16A", "assay": "HS-YFP assay in ITPR-defective HEK293 cells transiently transfected with TMEM16A", "format": "cell-based", "conditions": "UTP 5 μM, compound 10 μM, FIG. 2D"}, "ITPR1": {"target": "ITPR1 (Homo sapiens, UniProt Q14643)", "sequence (Q14643 whole entry)": "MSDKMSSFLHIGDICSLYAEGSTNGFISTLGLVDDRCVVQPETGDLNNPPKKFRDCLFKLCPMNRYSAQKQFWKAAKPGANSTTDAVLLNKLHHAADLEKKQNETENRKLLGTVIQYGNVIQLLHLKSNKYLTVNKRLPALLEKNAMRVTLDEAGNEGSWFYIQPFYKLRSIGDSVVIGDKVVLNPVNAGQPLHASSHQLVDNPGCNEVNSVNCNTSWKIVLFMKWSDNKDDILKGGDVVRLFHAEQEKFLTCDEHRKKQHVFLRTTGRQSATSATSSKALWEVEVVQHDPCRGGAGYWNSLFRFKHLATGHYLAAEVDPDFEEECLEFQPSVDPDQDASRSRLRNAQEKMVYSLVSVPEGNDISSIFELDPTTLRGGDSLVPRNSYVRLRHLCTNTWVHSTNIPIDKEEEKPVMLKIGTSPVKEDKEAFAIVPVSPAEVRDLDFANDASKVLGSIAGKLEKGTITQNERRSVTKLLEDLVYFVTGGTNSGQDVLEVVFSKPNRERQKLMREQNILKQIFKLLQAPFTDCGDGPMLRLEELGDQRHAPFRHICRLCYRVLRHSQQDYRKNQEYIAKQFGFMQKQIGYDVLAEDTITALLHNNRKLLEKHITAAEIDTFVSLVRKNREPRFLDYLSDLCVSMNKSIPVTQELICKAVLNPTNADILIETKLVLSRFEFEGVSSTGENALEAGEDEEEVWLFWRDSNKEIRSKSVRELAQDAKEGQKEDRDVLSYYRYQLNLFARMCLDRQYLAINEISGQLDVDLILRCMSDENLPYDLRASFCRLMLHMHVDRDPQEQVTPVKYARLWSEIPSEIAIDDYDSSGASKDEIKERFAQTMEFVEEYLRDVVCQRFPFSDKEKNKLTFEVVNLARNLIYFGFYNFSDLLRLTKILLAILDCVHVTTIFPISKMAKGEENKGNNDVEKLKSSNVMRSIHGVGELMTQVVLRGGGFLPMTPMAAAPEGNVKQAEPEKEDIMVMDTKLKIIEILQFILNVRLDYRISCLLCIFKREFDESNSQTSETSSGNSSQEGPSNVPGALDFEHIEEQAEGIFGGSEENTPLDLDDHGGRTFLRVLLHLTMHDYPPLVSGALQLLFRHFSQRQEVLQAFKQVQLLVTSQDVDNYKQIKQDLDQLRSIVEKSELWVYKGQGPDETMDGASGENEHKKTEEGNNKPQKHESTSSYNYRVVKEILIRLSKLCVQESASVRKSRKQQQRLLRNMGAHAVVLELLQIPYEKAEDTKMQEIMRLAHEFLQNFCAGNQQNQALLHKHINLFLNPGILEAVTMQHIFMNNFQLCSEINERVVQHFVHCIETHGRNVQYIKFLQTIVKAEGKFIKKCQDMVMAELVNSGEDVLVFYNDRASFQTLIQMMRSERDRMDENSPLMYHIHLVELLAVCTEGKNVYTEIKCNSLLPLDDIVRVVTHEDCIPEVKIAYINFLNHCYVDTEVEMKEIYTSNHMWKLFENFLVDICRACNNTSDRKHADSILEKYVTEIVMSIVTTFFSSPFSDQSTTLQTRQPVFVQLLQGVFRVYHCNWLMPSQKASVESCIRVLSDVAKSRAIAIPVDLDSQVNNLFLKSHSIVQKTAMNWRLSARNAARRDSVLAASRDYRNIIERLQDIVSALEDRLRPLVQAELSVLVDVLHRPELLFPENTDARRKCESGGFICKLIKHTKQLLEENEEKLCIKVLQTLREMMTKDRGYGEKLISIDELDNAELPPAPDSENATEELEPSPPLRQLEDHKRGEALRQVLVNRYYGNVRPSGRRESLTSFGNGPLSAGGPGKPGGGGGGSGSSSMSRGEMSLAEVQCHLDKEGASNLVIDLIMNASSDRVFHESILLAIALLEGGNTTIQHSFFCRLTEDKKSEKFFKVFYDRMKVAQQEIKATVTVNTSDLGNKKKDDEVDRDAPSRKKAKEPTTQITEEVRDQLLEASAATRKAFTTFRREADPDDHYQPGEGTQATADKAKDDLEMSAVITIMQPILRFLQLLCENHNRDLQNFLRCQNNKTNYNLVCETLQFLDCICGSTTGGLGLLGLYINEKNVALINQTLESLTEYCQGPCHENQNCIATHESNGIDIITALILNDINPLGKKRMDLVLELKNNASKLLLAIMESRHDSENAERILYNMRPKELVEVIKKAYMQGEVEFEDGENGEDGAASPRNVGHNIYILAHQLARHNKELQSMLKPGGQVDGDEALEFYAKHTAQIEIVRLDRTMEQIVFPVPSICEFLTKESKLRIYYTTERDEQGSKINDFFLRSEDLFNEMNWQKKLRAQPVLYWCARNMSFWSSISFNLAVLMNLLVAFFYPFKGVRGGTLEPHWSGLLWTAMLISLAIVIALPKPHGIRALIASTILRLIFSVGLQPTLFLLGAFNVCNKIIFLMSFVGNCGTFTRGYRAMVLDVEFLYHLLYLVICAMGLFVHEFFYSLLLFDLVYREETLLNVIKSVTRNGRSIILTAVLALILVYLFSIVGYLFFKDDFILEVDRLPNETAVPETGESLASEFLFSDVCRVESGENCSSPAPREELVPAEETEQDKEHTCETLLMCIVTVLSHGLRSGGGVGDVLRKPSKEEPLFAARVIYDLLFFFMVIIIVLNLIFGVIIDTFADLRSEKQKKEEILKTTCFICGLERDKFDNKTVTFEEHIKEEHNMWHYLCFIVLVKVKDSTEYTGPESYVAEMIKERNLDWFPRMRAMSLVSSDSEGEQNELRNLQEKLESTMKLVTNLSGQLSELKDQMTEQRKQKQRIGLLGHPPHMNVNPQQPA", "assay": "On-nucleus patch-clamp single-channel recordings, HEKR1 cells expressing ITPR1-EYFP", "format": "biochemical", "design": "EYFP; expressed in transfected cells; nuclei isolated for on-nucleus patch clamp", "conditions": "20 μM in pipette solution", "method": "Nuclear membrane patch currents were recorded in HEKR1 cells stably transfected with a plasmid encoding human ITPR1 tagged with Enhanced Yellow Fluorescent Protein (EYFP) kindly provided by Prof. Colin W. Taylor (University of Cambridge) (17). For nuclei isolation, at least 1,000,000 HEKR1-ITPR1-EYFP cells plated in a 35 mm Petri dish were used following the protocol for patch clamp on the outer nuclear membrane (18,19). Briefly, a Duall homogenizer 20 tube (Kimble Chase 885482-0020) and a tissue grind (Kimble 885480-0020) were used. 20 strokes were applied to cells suspended in NIS-0 solution (25). NIS-O solution consisted of 40 ml of sucrose buffer (150 mM KCl, 250 mM sucrose, 1.4 mM β-mercaptoethanol, 10 mM Tris-HCl; pH 7.3 with KOH) supplemented with one tablet of complete protease inhibitor cocktail (Roche) and 200 μM PMSF.\nBorosilicate glass pipettes were pulled on a two-step vertical puller (Narishige) to a final resistance of around 15-20 MO, as measured in the working solution. […]\nDuring experiments, the membrane capacitance was analogically compensated using the circuitry provided by the EPC10 patch-clamp amplifier. […] Data were analysed using the Igor software (WaveMetrics, Lake Oswego, OR, USA) supplemented by custom software kindly provided by Dr. Oscar Moran (Institute of Biophysics, CNR, Genova, Italy)."}}, "data": [{"smiles": "CCn1nc2c(c1C(=O)Nc1ccccc1OCC1CCCCO1)CCCC2", "note": "(stereo not drawn) [ARN11391, 2-Ethyl-N-[2-(tetrahydropyran-2-ylmethoxy)phenyl]-4,5,6,7-tetrahydroindazole-3-carboxamide]", "values": [{"measurement": "activation of TMEM16A by UTP with/without compound (HS-YFP)", "setting": "TMEM16A", "result": "no activation"}, {"measurement": "open channel probability (Po), average", "setting": "ITPR1; Vp=+40 mV, FIG. 6A", "result": "~0.2"}, {"measurement": "attempts with single channel openings of the expected ITPR1 current amplitude", "setting": "ITPR1; ~10 pA at +40 mV", "result": "5 out of 32"}]}]}
